# Structures can show the parent of a compound that is named as a salt.
# Experiments:
# [1] = biological target: CK1δ (Homo sapiens, UniProt P48730); assay: CK1δ kinase assay (Kinase-Glo luminescence); format: biochemical; details: ATP 10 μM, CK1δ enzyme 2 nM, peptide substrate 42 μM, 25° C., 85 minutes; values marked * are geometric mean of 5-16 determinations; read-out: CKIδ IC50 (nM), geometric mean of 2-4 determinations
# Protocol: The CK1δ kinase assay was performed in a standard buffer containing ATP at 10 μM, CK1δ enzyme at 2 nM, and the peptide substrate PLSRTLpSVASLPGL at 42 μM. The reaction was incubated at 25° C. for 85 minutes. Enzyme inhibition was performed in the presence of either 1 μL of CK1δ inhibitor, or 4% DMSO. Detection of luminescent output on a PerkinElmer EnVision plate reader (PerkinElmer, Waltham, Mass.) was performed as described for the Kinase-Glo Assay (Promega).
# [2] = biological target: CK1ε wild type enzyme (Homo sapiens, UniProt P49674); assay: CK1ε kinase assay (Kinase-Glo luminescence); format: biochemical; details: ATP 10 μM, CK1ε wild type enzyme 2.5 nM, peptide substrate 42 μM, 25° C., 70 minutes; values marked * are geometric mean of 5-16 determinations; read-out: CKIε IC50 (nM), geometric mean of 2-4 determinations
# Protocol: The CK1ε kinase assay was performed in a standard buffer containing ATP at 10 μM, CK1ε wild type enzyme at 2.5 nM, and 42 μM concentration of the peptide substrate PLSRTLpSVASLPGL (Flotow et al., 1990). The reaction was incubated at 25° C. for 70 minutes. Enzyme inhibition was measured in the presence of 1 μL of the CK1ε inhibitor, or 4% DMSO. Detection was carried out as described for the Kinase-Glo Assay (Promega). Luminescent output was measured on the PerkinElmer EnVision plate reader (PerkinElmer, Waltham, Mass.).
# Sequence of CK1δ (P48730 whole entry): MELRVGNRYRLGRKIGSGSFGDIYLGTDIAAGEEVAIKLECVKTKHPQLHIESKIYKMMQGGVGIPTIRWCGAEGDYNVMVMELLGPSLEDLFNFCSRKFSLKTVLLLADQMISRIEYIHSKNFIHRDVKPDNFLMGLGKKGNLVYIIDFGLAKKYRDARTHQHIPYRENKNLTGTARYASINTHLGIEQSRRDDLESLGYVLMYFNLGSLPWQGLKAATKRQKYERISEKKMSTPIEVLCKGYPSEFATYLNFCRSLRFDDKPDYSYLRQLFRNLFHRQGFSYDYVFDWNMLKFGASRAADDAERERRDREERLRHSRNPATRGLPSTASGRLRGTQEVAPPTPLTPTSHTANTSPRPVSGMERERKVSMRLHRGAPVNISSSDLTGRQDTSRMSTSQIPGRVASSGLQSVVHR
# Sequence of CK1ε wild type enzyme (P49674 whole entry): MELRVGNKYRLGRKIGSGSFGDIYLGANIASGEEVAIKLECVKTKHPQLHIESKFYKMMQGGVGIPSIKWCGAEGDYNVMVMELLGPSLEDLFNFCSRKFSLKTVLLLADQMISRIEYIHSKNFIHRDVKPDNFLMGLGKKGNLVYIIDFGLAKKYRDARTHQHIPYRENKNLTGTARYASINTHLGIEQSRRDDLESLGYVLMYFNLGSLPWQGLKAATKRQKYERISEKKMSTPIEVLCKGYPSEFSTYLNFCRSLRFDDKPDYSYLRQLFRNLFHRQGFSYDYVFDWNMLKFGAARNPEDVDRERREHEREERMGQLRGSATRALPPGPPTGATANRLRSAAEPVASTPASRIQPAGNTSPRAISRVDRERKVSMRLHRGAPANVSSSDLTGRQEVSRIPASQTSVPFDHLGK
SMILES,IC50 [1] [nM],IC50 [2] [nM]
"Nc1nccc(-c2c(-c3ccc(F)cc3)ncn2C2CCN(Cc3ccc(C(F)(F)F)nc3)CC2)n1 [Example 18, 4-[4-(4-fluorophenyl)-1-(1-{[6-(trifluoromethyl)pyridin-3-yl]methyl}piperidin-4-yl)-1H-imidazol-5-yl]pyrimidin-2-amine, trifluoroacetate salt]",80.7,394
"CCc1csc(CN2CCC(n3cnc(-c4ccc(F)cc4)c3-c3ccnc(N)n3)CC2)n1 [Example 24, 4-[1-{1-[(4-ethyl-1,3-thiazol-2-yl)methyl]piperidin-4-yl}-4-(4-fluorophenyl)-1H-imidazol-5-yl]pyrimidin-2-amine, trifluoroacetate salt]",83.7,382
"Cc1cccc(CN2CCC(n3cnc(-c4ccc(F)cc4)c3-c3ccnc(N)n3)C2)n1 (centres unmarked) [Example 30, 4-[4-(4-fluorophenyl)-1-{1-[(6-methylpyridin-2-yl)methyl]pyrrolidin-3-yl}-1H-imidazol-5-yl]pyrimidin-2-amine]",91.6,266
"Cc1nc(-c2ccc(F)cc2)c(-c2ccncn2)n1C1CCN(Cc2ccon2)CC1 [Example 14, 4-{4-(4-Fluorophenyl)-1-[1-(isoxazol-3-ylmethyl)piperidin-4-yl]-2-methyl-1H-imidazol-5-yl}pyrimidine]",140,829
"Fc1ccc(-c2ncn(C3CCN(Cc4cnc5ccnn5c4)C3)c2-c2ccncn2)cc1 (centres unmarked) [Example 40, 6-({3-[4-(4-fluorophenyl)-5-pyrimidin-4-yl-1H-imidazol-1-yl]pyrrolidin-1-yl}methyl)pyrazolo[1,5-a]pyrimidine, trifluoroacetate salt]",178,798
"Fc1ccc(-c2ncn(C3CCN(Cc4ccon4)C3)c2-c2ccncn2)cc1 (centres unmarked) [Example 8, 4-{4-(4-Fluorophenyl)-1-[1-(isoxazol-3-ylmethyl)pyrrolidin-3-yl]-1H-imidazol-5-yl}pyrimidine]",211,617
"Nc1nccc(-c2c(-c3ccc(F)cc3)ncn2C2CCN(Cc3ccncc3)C2)n1 (centres unmarked) [Example 34, 4-{4-(4-fluorophenyl)-1-[1-(pyridin-4-ylmethyl)pyrrolidin-3-yl]-1H-imidazol-5-yl}pyrimidin-2-amine]",76.6,211
"c1ccc(-c2ncn(C3CCN(Cc4ncccn4)CC3)c2-c2ccncn2)cc1 [Example 11, 2-{[4-(4-Phenyl-5-pyrimidin-4-yl-1H-imidazol-1-yl)piperidin-1-yl]methyl}pyrimidine]",790,> 3660
"Fc1ccc(-c2ncn(C3CCN(Cc4cn5ccccc5n4)C3)c2-c2ccncn2)cc1 (centres unmarked) [Example 39, 2-({3-[4-(4-fluoro-phenyl)-5-pyrimidin-4-yl-1H-imidazol-1-yl]pyrrolidin-1-yl}methyl)imidazo[1,2-a]pyridine, trifluoroacetate salt]",211,644
"C[C@H](c1ccon1)N1CCC(n2cnc(-c3ccc(F)cc3)c2-c2ccncn2)CC1 (single isomer, unassigned) [Example 9]",281,1360
"COCCc1ncc(CN2CCC(n3cnc(-c4ccc(F)cc4)c3-c3ccncn3)C2)cn1 (centres unmarked) [Example 42, 5-({3-[4-(4-fluorophenyl)-5-pyrimidin-4-yl-1H-imidazol-1-yl]pyrrolidin-1-yl}methyl)-2-(2-methoxyethyl)pyrimidine, trifluoroacetate salt]",679,1530

# Stronger by IC50 [1], values ahead:
IC50 [1] [nM],IC50 [2] [nM],SMILES
42.8,244,"Cn1nccc1CN1CCC(n2cnc(-c3ccc(F)cc3)c2-c2ccnc(N)n2)CC1 [Example 20, 4-[4-(4-fluorophenyl)-1-{1-[(1-methyl-1H-pyrazol-5-yl)methyl]piperidin-4-yl}-1H-imidazol-5-yl]pyrimidin-2-amine, trifluoroacetate salt]"
55.8,158,"Nc1nccc(-c2c(-c3ccc(F)cc3)ncn2C2CCN(Cc3ccnc4cccnc34)C2)n1 (centres unmarked) [Example 38, 4-{4-{4-fluorophenyl)-1-[1-(1,5-naphthyridin-4-ylmethyl)pyrrolidin-3-yl]-1H-imidazol-5-yl}pyrimidin-2-amine]"
51.9,238,"COc1ncccc1CN1CCC(n2cnc(-c3ccc(F)cc3)c2-c2ccnc(N)n2)CC1 [Example 26, 4-[4-(4-fluorophenyl)-1-{1-[(2-methoxypyridin-3-yl)methyl]piperidin-4-yl}-1H-imidazol-5-yl]pyrimidin-2-amine, trifluoroacetate salt]"
67.8,193,"Nc1nccc(-c2c(-c3ccc(F)cc3)ncn2C2CCN(Cc3ccon3)C2)n1 (centres unmarked) [Example 7, 4-{4-(4-Fluorophenyl)-1-[1-(isoxazol-3-ylmethyl)pyrrolidin-3-yl]-1H-imidazol-5-yl}pyrimidin-2-amine]"
56.3,140,"Nc1nccc(-c2c(-c3ccc(F)cc3)ncn2C2CCN(Cc3cncc4ccccc34)C2)n1 (centres unmarked) [Example 36, 4-{4-(4-fluorophenyl)-1-[1-(isoquinolin-4-ylmethyl)pyrrolidin-3-yl]-1H-imidazol-5-yl}pyrimidin-2-amine]"
6.86,32.3,"CNc1nccc(-c2c(-c3ccc(F)cc3)ncn2C2CCN(Cc3ccon3)CC2)n1 [Example 5, 4-{4-(4-Fluorophenyl)-1-[1-(isoxazol-3-ylmethyl)piperidin-4-yl]-1H-imidazol-5-yl}-N-methylpyrimidin-2-amine]"
61.1,150,"Cc1ncccc1CN1CCC(n2cnc(-c3ccc(F)cc3)c2-c2ccnc(N)n2)C1 (centres unmarked) [Example 32, 4-[4-(4-fluorophenyl)-1-{1-[(2-methylpyridin-3-yl)methyl]pyrrolidin-3-yl}-1H-imidazol-5-yl]pyrimidin-2-amine]"
16.7,67.4,"CNc1nccc(-c2c(-c3ccc(F)cc3)ncn2C2CCN(C(C)c3ccon3)CC2)n1 (centres unmarked) [Example 2, 4-{4-(4-Fluorophenyl)-1-[1-(1-isoxazol-3-ylethyl)piperidin-4-yl]-1H-imidazol-5-yl}-N-methylpyrimidin-2-amine]"
8.22,40.9,"Nc1nccc(-c2c(-c3ccccc3)ncn2C2CCN(Cc3ccon3)CC2)n1 [Example 13, 4-{1-[1-(Isoxazol-3-ylmethyl)piperidin-4-yl]-4-phenyl-1H-imidazol-5-yl}pyrimidin-2-amine, hydrochloride salt]"
42.8,327,"c1ccc(-c2ncn(C3CCN(Cc4ccon4)CC3)c2-c2ccncn2)cc1 [Example 16, 4-{1-[1-(isoxazol-3-ylmethyl)piperidin-4-yl]-4-phenyl-1H-imidazol-5-yl}pyrimidine]"
13,59.8,"Cc1cc(CN2CCC(n3cnc(-c4ccc(F)cc4)c3-c3ccnc(N)n3)CC2)ccn1 [Example 21, 4-[4-(4-fluorophenyl)-1-{1-[(2-methylpyridin-4-yl)methyl]piperidin-4-yl}-1H-imidazol-5-yl]pyrimidin-2-amine, trifluoroacetate salt]"
46.6,124,"Cc1cc(C)c(CN2CCC(n3cnc(-c4ccc(F)cc4)c3-c3ccnc(N)n3)C2)cn1 (centres unmarked) [Example 37, 4-[1-{1-[(4,6-dimethylpyridin-3-yl)methyl]pyrrolidin-3-yl}-4-(4-fluorophenyl)-1H-imidazol-5-yl]pyrimidin-2-amine]"
55.1,140,"Cc1cc(CN2CCC(n3cnc(-c4ccc(F)cc4)c3-c3ccnc(N)n3)C2)no1 (centres unmarked) [Example 33, 4-[4-(4-fluorophenyl)-1-{1-[(5-methylisoxazol-3-yl)methyl]pyrrolidin-3-yl}-1H-imidazol-5-yl]pyrimidin-2-amine]"
38.8,268,"Cc1cc(CN2CCC(n3cnc(-c4ccc(F)cc4)c3-c3ccncn3)CC2)no1 [Example 29, 4-[4-(4-fluorophenyl)-1-{1-[(5-methylisoxazol-3-yl)methyl]piperidin-4-yl}-1H-imidazol-5-yl]pyrimidine]"
32.1,144,"Cc1nc2ccccc2nc1CN1CCC(n2cnc(-c3ccc(F)cc3)c2-c2ccnc(N)n2)CC1 [Example 17, 4-[4-(4-fIuorophenyl)-1-{1-[(3-methylquinoxalin-2-yl)methyl]piperidin-4-yl}-1H-imidazol-5-yl]pyrimidin-2-amine, trifluoroacetate salt]"
26.8,99.9,"Nc1nccc(-c2c(-c3ccc(F)cc3)ncn2C2CCN(Cc3cncs3)CC2)n1 [Example 19, 4-{4-(4-fluorophenyl)-1-[1-(1,3-thiazol-5-ylmethyl)piperidin-4-yl]-1H-imidazol-5-yl}pyrimidin-2-amine, trifluoroacetate salt]"
< 4.17,18.9,"Nc1nccc(-c2c(-c3ccc(F)cc3)ncn2C2CCN(Cc3ccon3)CC2)n1 [Example 4, 4-{4-(4-Fluorophenyl)-1-[1-(isoxazol-3-ylmethyl)piperidin-4-yl]-1H-imidazol-5-yl}pyrimidin-2-amine]"
